Experimental data from patent US5536749A, “Method for attenuation of sympathetic nervous system activity or onset of migraine by selectively metabolized beta-blocking agents” (SL Pharmaceuticals, Inc., priority 1994, dated 1996).

System: isoproterenolinduced tachycardia
Assay: beta-blocking action (potency, onset and duration) in anesthetized dogs after sublingual administration
Type: in vivo, dog
Protocol: The procedure described by J. E. Shaffer et al. in Drug Development Research 1, 221-232 (1986) was used to assess the potency, onset and duration of beta-blocking action of the compounds of Formula I in anesthetized dogs, except that compositions of Formula I were administered sublingually to the dog instead of by intravenous infusion. Using this method the results shown below were obtained with representative compounds A and B.
^1 Defined as the time from sublingual dosing to the first detectable
decrease in heart rate.
^2 Defined as the percent of reduction in isoproterenolinduced
^3 Defined as the times from sublingual dosing to the peak blockade o
isoproterenol observed. (Isoproterenol dose every ten minuets.)
^4 Defined as the time from peak blockade to the decay of blockade by […]

Q: Which “Peak Blockade (% Inhibition)” value (0.16 mpk (mg/kg), first line of Table 1, percent of reduction in isoproterenol-induced tachycardia) does the source give for `COC(=O)CCc1ccccc1OCC(O)CNC(C)C` (stereo not drawn) [A] here?
A: 35 ± 6%

Q: And the “Beta-Blockade Onset” value (0.16 mpk (mg/kg), first line of Table 1, time from dosing to first detectable decrease in heart rate)?
A: 1 to 2 min

Q: And the “Time to Peak Blockade” value (0.16 mpk (mg/kg), first line of Table 1, time from dosing to peak blockade of isoproterenol (dosed every ten minutes))?
A: 10 min

Q: And the “Time to 50% Recovery from Blockade” value (0.16 mpk (mg/kg), first line of Table 1, time from peak blockade to decay of blockade by 50% of the peak)?
A: 38 min

Q: And the “Peak Blockade (% Inhibition)” value (0.16 mpk (mg/kg), second line of Table 1, percent of reduction in isoproterenol-induced tachycardia)?
A: 39 ± 2%

Q: And the “Beta-Blockade Onset” value (0.16 mpk (mg/kg), second line of Table 1, time from dosing to first detectable decrease in heart rate)?
A: 3 to 4 min

Q: What about the “Time to Peak Blockade” value (0.16 mpk (mg/kg), second line of Table 1, time from dosing to peak blockade of isoproterenol (dosed every ten minutes)) of the same compound?
A: 10 min

Q: And the “Time to 50% Recovery from Blockade” value (0.16 mpk (mg/kg), second line of Table 1, time from peak blockade to decay of blockade by 50% of the peak)?
A: 43 min

Q: What about the “Peak Blockade (% Inhibition)” value (0.47 mpk (mg/kg), third line of Table 1, percent of reduction in isoproterenol-induced tachycardia) of the same compound?
A: 65 ± 4%

Q: What about the “Beta-Blockade Onset” value (0.47 mpk (mg/kg), third line of Table 1, time from dosing to first detectable decrease in heart rate) of the same compound?
A: 2 to 3 min

Q: What about the “Time to Peak Blockade” value (0.47 mpk (mg/kg), third line of Table 1, time from dosing to peak blockade of isoproterenol (dosed every ten minutes)) of the same compound?
A: 10 min

Q: What about the “Time to 50% Recovery from Blockade” value (0.47 mpk (mg/kg), third line of Table 1, time from peak blockade to decay of blockade by 50% of the peak) of the same compound?
A: 81 min
